The test system of test [1] is H460 cells. As to the kind of experiment: In vitro cell proliferation inhibition under normoxia (96-well, CTG, 72 hours). The note with it: for IC50: Homo sapiens, NCI-H460, 72 h, 72 hours. Format: cell-based, human. As to the method:
Overview of the experimental process • 1) H460 cell suspension was added to a 96-well plate at 100 µL per well, with a cell density of 2000 /well. • 2) The cells were cultured overnight in an incubator at 37°C, 5% CO2. • 3) Compound Treatment
Monotherapy: After 24 hours of cell plating, each well was supplied with 99.5 µL of growth medium then added with 0.5µL of test compounds at different concentrations, shaken gently to ensure even mixing, and then placed at 37°C, 5% CO2 in an incubator.
Combination therapy: After 24 hours of cell plating, each well was supplied with 99 µL of growth medium then added with 0.5µL of the combined action compound Nutlin-3, shaken gently to ensure even mixing, and then placed in an incubator for 2 hours. Then each well was added with 0.5µL of test compounds at different concentrations, shaken gently to ensure even mixing, and then placed at 37°C, 5% CO2 in an incubator.
(§1) 4) The cell plate was placed in the incubator for 72 hours.
(§2) 5) The cell plate to be tested was placed at room temperature to equilibrium for 30 minutes, and 100µL of medium was discarded per well.
(§3) 6) 25µL of CTG reagent was added to each well, placed at a fast shaker to shake for 2 minutes, and placed at room temperature away from light for 30 minutes.
(§4) 7) The chemiluminescence signal value was read using a multifunctional microplate reader with a reading time of 1000 ms.
8) IC50 was calculated with Graph Pad Prism 5 software.
• 1) H460 and HPAF-II cell suspensions were added to a 96-well plate at 100 µL per well, with a cell density of 2000 /well and 20000/well, respectively. • 2) The cells were cultured overnight in an incubator at 37°C, 5% CO2. • 3) Compound Treatment
Combination therapy: After 24 hours of cell plating, 99 µL of growth medium was supplied to each well. Each well was added with 0.5 µL of Nutlin-3 or RITA, shaken gently to ensure even mixing, and then placed in an incubator for 2 hours. Then each well was added with 0.5µL of test compounds at different concentrations, shaken gently to ensure even mixing, and then placed at 37°C, 5% CO2 in an incubator.
(§5) Monotherapy: After 24 hours of cell plating, 99.5 µL of growth medium was supplied to each well. Then each well was added with 0.5µL of test compounds at different concentrations, shaken gently to ensure even mixing, and then placed at 37°C, 5% CO2 in an incubator.
7) The chemiluminescence signal value was read using a multifunctional microplate reader with a reading time of 1000 ms. The corresponding inhibition rate data were calculated.
(§6) • 1) NCI-H460, NCI-H460 P53KO # 1 cell suspensions were added to a 96-well plate at 100 µL per well, with a cell density of 2000 /well. • 2) The cells were cultured overnight in an incubator at 37°C, 5% CO2. • 3) Compound Treatment
(§7) Combination therapy: After 24 hours of cell plating, 99 µL of medium was supplied to each well. Each well was added with 0.5µL of combined action compound, shaken gently to ensure even mixing, and then placed in an incubator for 2 hours. Then each well was added with 0.5µL of test compounds at different concentrations, shaken gently to ensure even mixing, and then placed at 37°C, 5% CO2 in an incubator.
(§8) 8) The ICso (half maximal inhibitory concentration) values were calculated using GraphPad Prism 5 software.

The subject of the next test is H460 P53 KO #1. As to the kind of experiment: In vitro cell proliferation inhibition under normoxia, p53 knockout cells. Format: cell-based, human. The note with it: Homo sapiens, NCI-H460, 72 h, 72 hours. As to the method: (§9) The p53 CRISPR/Cas9 KO plasmid (human) and p53 HDR plasmid (human) were purchased from Santa Cruz Company to construct H460 P53 KO cell lines, namely p53 knockout (KnockOut) H460 cell lines. Three groups of H460 P53 KO cell lines were constructed with numbers of H460 P53 KO # 1, H460 P53 KO # 7, and H460 P53 KO # 12.
(§10) After co-incubation for 15 minutes, they were added dropwise to the culture medium and mixed well.
(§11) After 48 h, 2 µg/mL puromycin was added for screening.
(§12) When the cell colonies grew to a sufficient size, single colonies were picked and cultured.
(§13) When the cell number reached a sufficient quantity, samples were collected for WB identification of the colonies.
(§14) H460 P53 KO cell lines, i.e. H460 P53 KO # 1, H460 P53 KO # 7, H460 P53 KO # 12 cell lines were used in experiments, respectively.
as §6, §5, §7, §1, §2, §3, §4, §8

The test system of the next test is H460 P53 KO #12. Described as above. Particulars: Homo sapiens, NCI-H460; H460 P53 KO # 12, normoxia, 72 hours; alone or with 3µM AST-3021 as labelled (Example 10). The test is classed as cell-based, human. As to the method: as §9, §10, §11, §12, §13, §14
For the next test, the system named is H460 P53 KO #7. The test is described as above. Format: cell-based, human. Particulars: Homo sapiens, NCI-H460; H460 P53 KO # 7, normoxia, 72 hours; alone or with 3µM AST-3021 as labelled (Example 10). As to the method: as §9, §10, §11, §12, §13, §14
The subject of test [2] is H460 cells. As to the kind of experiment: Cell cycle G2/M arrest, PI staining flow cytometry. Format: cell-based. The method, then:
Overview of the experimental process: • 1) H460/HPAF-II cell suspensions were added to a 24-well plate, with a cell density of 100000 /well and 995 µL of medium per well. • 2) The cells were cultured overnight in an incubator at 37°C, 5% CO2. • 3) Compound Treatment
4) The cells were digested, centrifuged at 1000 g at 4°C, washed once with pre-cooled PBS, centrifuged at 1000 g at 4°C, and fixed with 1 mL of pre-cooled 70% ethanol at -20°C overnight.
5) The cells were centrifuged at 3000g at 4°C, washed once with pre-cooled PBS (phosphate buffer), centrifuged at 3000g at 4°C. Prepare PI staining solution. The cells were stained at 37°C away from light for 30 minutes, and stored in an ice bath away from light. Flow cytometric detection was performed on the same day, and the proportion of cells in different cell cycle phases was analyzed using FlowJo.
On the technique in general: Flow cytometry measures light scatter and fluorescence of single cells or particles in a stream.

By IC50 is commonly meant the midpoint of a concentration-inhibition curve. On to `C[C@H](OP(=O)(N1CC1)N1CC1)c1ccc([N+](=O)[O-])c(Oc2cccc(C(=O)N(C)C)c2)c1` [AST-3424], for which the “proliferation inhibition rate of AST-3424” value with H460 cells [1] (H460 cells, Nutlin-3 added 2 hours in advance, followed by AST-3424, 72 hours (Figure 1)) is recorded as “increase significantly”. Besides, the IC50 was 0.23 nM in the test with H460 cells [1] (H460 WT, normoxia, alone or with 3µM AST-3021 as labelled (Example 10)); 0.43 nM in the test on H460 cells [1] (NCI-H460, normoxia, alone or with 3 µM AST-3021 as labelled (Example 13)); 11.3 nM in the test with H460 P53 KO #1 (H460 P53 KO # 1, normoxia, alone or with 3µM AST-3021 as labelled (Example 10)); 5.45 nM with H460 P53 KO #1 (NCI-H460 P53KO # 1, normoxia, alone or with 3 µM AST-3021 as labelled (Example 13)); 1.99 nM with H460 P53 KO #12; 23.1 nM with H460 P53 KO #7. Also, in the test on H460 cells [2] (first experiment, 0.1 nM AST-3424, 5 µM Nutlin-3, 24 hours, combination: AST-3424 first (Figure 5)), the “cell cycle (G0/G1, S, G2/M phases)” value was “did not significantly alter the cell cycle”. In addition, the “G2/M cell cycle arrest” value in the test on H460 cells [2] (second experiment, 0.03-1 nM AST-3424, 5 µM Nutlin-3, AST-3424 pre-treatment 2 hours (Figure 6)) was “concentration-dependent G2/M cell cycle arrest”.
